This passage reports TGI results from PubChem BioAssay (NCI).

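Assay format: 96-well plates, 48-hour exposure. TGI: total growth inhibition.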

Holding throughout (test): NCI tumour cell line growth inhibition, 48 h
Assay [1] relates to PC-3 prostate.
The test system of assay [2] is HOP-62 NSCLC.
Assay [3] concerns ACHN renal.
The test system of assay [4] is SK-OV-3 ovarian.
Assay [5] has as its system NCI-H226 lung.
The subject of assay [6] is SF-295 CNS.
Assay [7] deals with MCF7 breast.
Assay [8] concerns M14 melanoma.
In assay [9] the test system is SNB-19 CNS.
In assay [10] the test system is HT29 colon.
The subject of assay [11] is UO-31 renal.
For assay [12], the system named is MOLT-4 leukemia.
The subject of assay [13] is UACC-62 melanoma.
Assay [14] relates to EKVX NSCLC.
In assay [15] the test system is BT-549 breast.
Assay [16] has as its system RPMI-8226 leukemia.
Assay [17] relates to HCC-2998 colon.
The test system of assay [18] is SF-268 CNS.

As for `COc1ccc2[nH]cc(CCNC(=O)[C@H](Cc3ccccc3)NC(=O)[C@@H](NCC(F)(F)F)C(C)C)c2c1`, the TGI in [1] stood at 40.9 µM; in [2] it was 36.2 µM; in [3], 67.7 µM; in assay [4], 33.3 µM; in [5], 44 µM; in assay [6] it was 25.2 µM. Moreover, the TGI in [7] is 36.5 µM; in assay [8], 34.1 µM; in assay [9], 84.8 µM; in assay [10], 31.5 µM; in assay [11], 68.3 µM; in assay [12] it was 69.5 µM. Also, the TGI worked out at 36.2 µM in assay [13], 44 µM in assay [14], 42.5 µM in assay [15] and 23.8 µM in assay [16].
Consider `COC(=O)C(=O)C(C(=O)C(=O)Nc1ccc(F)cc1)c1nc2ccc([N+](=O)[O-])cc2[nH]c1=O` (stereo not drawn), for which the TGI in assay [2], in [4], in [5], in assay [6], in [17] and in assay [8] was more than 100 µM throughout. Also, the TGI in assay [9], in assay [10], in assay [11], in assay [14], in assay [16] and in assay [18] was more than 100 µM throughout.
As to `O=C(c1cccs1)N(C(=S)N1CCN(c2ccccn2)CC1)c1ccccc1`, the TGI in assay [2] was more than 100 µM; in assay [3], more than 100 µM; in [4], more than 100 µM; in [5], 84.4 µM; in [6] it was more than 100 µM; in [8], more than 100 µM. The TGI in assay [9], in assay [10], in [11], in [12], in assay [13] and in assay [16] was more than 100 µM in each case. The TGI in [18] is more than 100 µM.
On to `CCCCOC(=O)C1C2CCC(O2)C1C(=O)OCCCC` (stereo not drawn), for which the TGI in [2], in assay [3], in [4], in [5], in assay [6] and in [17] was more than 100 µM each time. The TGI in [8] was more than 82.1 µM; in [9], more than 100 µM; in [10], more than 64.2 µM; in assay [11], more than 100 µM; in assay [12], more than 100 µM; in assay [13], more than 100 µM. Further, the TGI is more than 100 µM in assay [14], more than 68.5 µM in assay [16] and more than 100 µM in assay [18].
Turning to `NC(=O)N/N=C(\CC1OC(=O)c2ccccc21)c1ccco1` (stereo not drawn), the TGI in assay [3], in [4], in assay [5], in assay [6], in assay [17] and in assay [8] was more than 100 µM each time. Further, the TGI in [9], in assay [10], in assay [11], in [12], in assay [13] and in assay [14] was more than 100 µM in each case. Further, the TGI in assay [18] was more than 100 µM.
Regarding `O=c1[nH]c2cc(Cl)ccc2nc1/C(=N\O)C(O)c1cccc([N+](=O)[O-])c1` (stereo not drawn), the TGI in assay [2], in [3], in [4], in assay [5], in assay [6] and in [17] was more than 100 µM throughout. The TGI in assay [8], in [9], in assay [10], in assay [11], in assay [12] and in [13] was more than 100 µM each time. The TGI in assay [14] and in assay [16] was more than 100 µM each time.
As to `COc1cc2c(oc(=O)c3c4oc([Si](C)(C)C)cc4cc(OC)c23)c2cccc(OCc3ccccc3)c12`, the TGI was 47.6 µM in assay [2]; more than 100 µM in [3]; more than 73.2 µM in [4]; more than 94.4 µM in assay [5]; 50.9 µM in assay [6]; more than 100 µM in assay [17]. The TGI in assay [8] is 61.3 µM; in [9], 64.1 µM; in assay [10] it was more than 100 µM; in [11], more than 100 µM; in [12], more than 100 µM; in [13] it was 37.6 µM. In addition, the values for the TGI in [14], in assay [16] and in assay [18] were more than 100 µM, more than 87 µM and more than 70.7 µM, respectively.
Take `O=C1/C(=C/c2cccc(Br)c2)CCc2ccccc21`: the TGI worked out at 27.7 µM in assay [1]; 30.1 µM in [2]; 27.7 µM in [3]; 47.2 µM in assay [4]; 31.1 µM in assay [5]; 28.5 µM in assay [6]. For the same compound, the TGI in [7] was 14.9 µM; in assay [8], 29.4 µM; in assay [9] it was 27.9 µM; in assay [10], 27.1 µM; in assay [11], 26.7 µM; in assay [12], 42.1 µM. Further, the TGI in assay [13] stood at 22.4 µM; in assay [14], 32.7 µM; in assay [15], 22.2 µM; in assay [18], 21.8 µM.
Regarding `NC1=C(NC(=O)Cc2ccc(F)cc2)C(=O)c2ccccc2C1=O`, the TGI in assay [2] was more than 87.6 µM; in [3], more than 100 µM; in assay [4], 56.1 µM; in [5], more than 100 µM; in [6], more than 91.6 µM; in assay [17] it was more than 100 µM. The TGI in [8] is more than 100 µM; in assay [9], 59 µM; in assay [10], more than 100 µM; in assay [11], more than 100 µM; in [12] it was more than 100 µM; in assay [13], more than 100 µM. For the same compound, the TGI in [14], in [16] and in assay [18] was more than 100 µM in each case.
Consider `COc1cc(O)c2c(=O)cc(-c3ccc(O)cc3O)oc2c1CC=C(C)C`, for which the TGI turned out to be 27.1 µM in [1]; 30.4 µM in assay [3]; 38 µM in assay [5]; 30.2 µM in [6]; 75.7 µM in assay [7]; 30.2 µM in assay [8]. For the same compound, the TGI in [9] is 44.5 µM; in assay [10], 16.3 µM; in assay [11], 33.5 µM; in assay [12], 83.2 µM; in assay [13], 39.3 µM; in assay [14], 73.6 µM. Besides, the TGI in assay [16] was more than 100 µM; in [18] it was 63.4 µM.
